Test results: ChEMBL document CHEMBL2203071, “Gambogic acid deactivates cytosolic and mitochondrial thioredoxins by covalent binding to the functional domain” (J Nat Prod, 2012)
Calls of active or inactive are those of the source. No cut-off for these calls is given here.

Legend:
[1] = target: T1, Thioredoxin, mitochondrial (Homo sapiens) (UniProt Q99757); assay: Covalent binding affinity to human recombinant TRX-2 assessed as change in protein configuration at 0.05 mM by MALDITOF mass spectrometry
T1 sequence (whole entry): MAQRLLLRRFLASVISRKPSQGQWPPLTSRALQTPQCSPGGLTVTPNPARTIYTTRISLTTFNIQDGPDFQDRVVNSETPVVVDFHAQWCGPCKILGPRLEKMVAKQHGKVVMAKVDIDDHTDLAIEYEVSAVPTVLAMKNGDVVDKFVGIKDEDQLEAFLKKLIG

[2] = target: T2, Thioredoxin (Homo sapiens) (UniProt P10599); assay: Covalent binding affinity to human recombinant TRX-1 assessed as change in protein configuration at 0.1 mM by MALDITOF mass spectrometry
T2 sequence (whole entry): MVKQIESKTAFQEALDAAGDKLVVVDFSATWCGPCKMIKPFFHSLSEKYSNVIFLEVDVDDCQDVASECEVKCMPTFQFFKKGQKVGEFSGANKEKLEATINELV

[3] = target: T1, Thioredoxin, mitochondrial (Homo sapiens); assay: Covalent binding affinity to TRX-2 in human […] cells assessed as compound-TRX-2 adduct formation at 3 uM after 2 hrs by immunoblotting in presence of GSH; type: cell-based
[4] = target: T2, Thioredoxin (Homo sapiens); assay: Covalent binding affinity to TRX-1 in human […] cells assessed as compound-TRX-1 adduct formation at 3 uM after 2 hrs by immunoblotting in presence of GSH; type: cell-based
[5] = target: T1, Thioredoxin, mitochondrial (Homo sapiens); assay: Covalent binding affinity to TRX-2 in human […] cells at 3 uM after 2 hrs by immunofluorescence assay; type: cell-based
[6] = target: T2, Thioredoxin (Homo sapiens); assay: Covalent binding affinity to TRX-1 in human […] cells at 3 uM after 2 hrs by immunofluorescence assay; type: cell-based
[7] = target: T1, Thioredoxin, mitochondrial (Homo sapiens); assay: Covalent binding affinity to human recombinant TRX-2 C assessed as modification in C31/C34 residues by LC-MS/MS analysis
[8] = target: T2, Thioredoxin (Homo sapiens); assay: Covalent binding affinity to human recombinant TRX-1 C assessed as modification in C62/C69/C73 residues by LC-MS/MS analysis
[9] = target: T2, Thioredoxin (Homo sapiens); assay: Inhibition of human recombinant TRX-1 by insulin reduction assay; settings: TDE = time-dependent effect
[10] = target: T1, Thioredoxin, mitochondrial (Homo sapiens); assay: Inhibition of human recombinant TRX-2 by insulin reduction assay; settings: TDE = time-dependent effect
[11] = target: T2, Thioredoxin (Homo sapiens); assay: Inhibition of TRX1 in human […] cells after 2 hrs by insulin reduction assay; type: cell-based
[12] = target: T1, Thioredoxin, mitochondrial (Homo sapiens); assay: (§1) Inhibition of human recombinant TRX-2 up to 60 mins by insulin reduction assay
[13] = target: T3, Thioredoxin, mitochondrial (Homo sapiens, UniProt Q99757); assay: as §1
T3 sequence (Q99757 whole entry): T1 sequence (whole entry)

[14] = target: T2, Thioredoxin (Homo sapiens); assay: (§2) Inhibition of human recombinant TRX-1 up to 60 mins by insulin reduction assay
Thioredoxin = target: T4, Thioredoxin (Homo sapiens, UniProt P10599); assay: as §2
T4 sequence (P10599 whole entry): T2 sequence (whole entry)

[15] = target: T1, Thioredoxin, mitochondrial (Homo sapiens); assay: Covalent binding affinity to human recombinant TRX-2 assessed as change in protein configuration at 20 uM by LC-ESIQTOF mass spectrometry; settings: TDE = time-dependent effect
[16] = target: T2, Thioredoxin (Homo sapiens); assay: Covalent binding affinity to human recombinant TRX-1 assessed as change in protein configuration at 50 uM by LC-ESIQTOF mass spectrometry; settings: TDE = time-dependent effect

In the case of `CC(C)=CCC/C(C)=C/Cc1c(O)c(CC=C(C)C)c2c(c1O)C(=O)C1=C[C@@H]3C[C@H]4C(C)(C)O[C@@](C/C=C(/C)C(=O)O)(C3=O)[C@@]14O2`, the Activity [1] is reported as “Active” and the Activity [2] is reported as “Active”.

In the case of `CC(C)=CCC[C@]1(C)C=Cc2c(O)c3c(c(CC=C(C)C)c2O1)O[C@]12C(=C[C@@H]4C[C@H]1C(C)(C)O[C@@]2(C/C=C(/C)C(=O)NCCCCCNC(=O)CCCC[C@@H]1SC[C@@H]2NC(=O)N[C@@H]21)C4=O)C3=O`, the Activity [3] is reported as “Active”, the Activity [4] is reported as “Active” and the Activity [5] is reported as “Active”. The Activity [6] was “Active”.

In the case of `CC(C)=CCC[C@]1(C)C=Cc2c(O)c3c(c(CC=C(C)C)c2O1)O[C@]12C(C3=O)C(O)[C@@H]3C[C@H]1C(C)(C)O[C@@]2(C/C=C(/C)C(=O)O)C3=O` (some centres undefined), the Activity [1] is reported as “inactive” and the Activity [2] is reported as “inactive”.

In the case of `CC(C)=CCC[C@]1(C)C=Cc2c(O)c3c(c(CC=C(C)C)c2O1)O[C@]12C(C3=O)[C@@H](S(=O)(=O)O)[C@@H]3C[C@H]1C(C)(C)O[C@@]2(C/C=C(/C)C(=O)O)C3=O` (some centres undefined), the Activity [1] is reported as “inactive” and the Activity [2] is reported as “inactive”.

`CC(C)=CCC[C@]1(C)C=Cc2c(O)c3c(c(CC=C(C)C)c2O1)O[C@]12C(C3=O)[C@H](S(=O)(=O)O)[C@@H]3C[C@H]1C(C)(C)O[C@@]2(C/C=C(/C)C(=O)O)C3=O` (some centres undefined) was tested, and the Activity [1] was “inactive” and the Activity [2] was “inactive”.

`CC(C)=CCC[C@]1(C)C=Cc2c(O)c3c(c(CC=C(C)C)c2O1)O[C@]12C(C[C@@H]4C[C@H]1C(C)(C)O[C@@]2(C/C=C(/C)C(=O)O)C4=O)C3=O` (some centres undefined) was tested, and the Activity [1] was “inactive” and the Activity [2] was “inactive”.

With `CC(C)=CCC[C@]1(C)C=Cc2c(O)c3c(c(CC=C(C)C)c2O1)O[C@]12C(=C[C@@H]4C[C@H]1C(C)(C)O[C@@]2(C/C=C(/C)C(=O)O)C4=O)C3=O` [GAMBOGIC ACID] the Activity [7] was “Active”, the Activity [8] was “Active” and the inhibition [9] was “tde”. For the same molecule, the inhibition [10] was “tde”, the inhibition [11] was “Dose-dependent effect” and the Kinact [12] was 0.037 min⁻¹. For the same molecule, the inhibition [12] was “Dose-dependent effect”, the Ki [13] was 1310 nM and the Kinact [14] was 0.063 min⁻¹. The inhibition [14] was “Dose-dependent effect”, the Ki (Thioredoxin) was 3110 nM and the Activity [15] was “tde”. The Activity [16] was “tde”, the Activity [1] was “Active” and the Activity [2] was “Active”.
